Where “and” joins values, the source holds several entries; their conditions need not be identical. Identical values can stand only once. Like-named read-outs stand apart in the source and are kept apart here.
How the values were obtained:
[1] = system: human retinoblastoma cells (Y79); experiment: Presto Blue cell viability assay in Y79 cells at 72 h; format: cell-based
Protocol: (§1) The cytotoxicity of the two most promising derivatives, i.e.3d and 3e, was subsequently evaluated on human retinoblastoma (Y79) and healthy human retina (RPE1) immortalised cells after 72 hours of incubation in 2D settings under standard conditions, i.e. at 37 °C and 5% CO2, and also under conditions that mimic mild hyperthermia, i.e. at 42 °C for 1 hour followed by 71 hours at 37 °C, respectively, see Table 2.
(§2) The human retina (RPE1) and retinoblastoma (Y79) cell lines were purchased from ATCC, Switzerland. RPMI 1640, DMEM high glucose Glutamax and DMEM GlutaMAX media were obtained from Life Technologies, and fetal bovine serum (FBS) was obtained from Sigma. Cell culture was performed in RPMI 1640 with 20% FBS and DMEM high glucose Glutamax with 10% FBS for Y79 and RPE1, respectively. Cell passage was performed twice per week using the appropriate medium and the resulting flaks were maintained in a bioincubator (Thermo Scientific, Switzerland) that controlled the humidity and fixed the CO2 rate to 5%. Cell viability tests were conducted in a flat bottomed 96 or 384 well plate using a compound stock solution prepared in dimethyl sulfoxide (DMSO) for all compounds except Cisplatin. The maximum concentration of DMSO in the wells was 0.1% DMSO. […]
(§3) 3. Presto Blue cell viability assay in Y79 and RPE1 cells at 72 h
(§4) In order to evaluate the cytotoxicity of 3a-3f on Y79 and RPE1 cell lines, cell viability tests were conducted using cell work solutions at 4x10^5 and 7x10^5 cell/mL respectively and compound stock solutions were prepared at 10 µM in DMSO. The robotic System (Echo 550 […]
(§5) LIQUID HANDLER) charged the 384-cell plate with a decreasing volume of each compound’s SS in order to have a concentration gradient that covers 100 to 0.7 µM. DMSO was added to each well so as to have the same final volume of compound’s solution in each well. Cells were added in the plate using a disperser (Thermo Scientific Multidrop Combi, Switzerland).
(§6) For thermal assays, the plates were placed in a heat chamber at 42 °C for 1 h and then transferred to a bioincubator at 37 °C for 71 h where the control plates were already placed. After 72 h of a total incubation time, […] of presto blue were added to each well and all the plates were incubated for 1 h at 37 °C. For presto blue cell viability assays, gambogic acid was used at 10 µM and represented the positive control, while DMSO at a final concentration of 0.1% presented the negative control. Fluorescence was measured using a […]
(§7) plate reader (Tecan […] F500 reader, Switzerland) at 560 nm for […] and 590 nm for fluorescence. The normalization of the fluorescence’s intensities was conducted with GraphPad software using Gambogic acid and DMSO as positive and negative control, […]

[2] = system: dsDNA oligonucleotide 5'-AGGCAG-3' (B1) / 3'-TCCGTC-5' (B2); experiment: DNA binding ESI-MS study with model double stranded oligonucleotide; settings: 37 °C, 48 hours incubation; for adduct formation with the dsDNA oligonucleotide (ESI-MS): 1 : 5 ratio
Protocol: The resulting solutions were measured by electrospray ionization mass spectrometry (ESI-MS) and the analysis of the spectra[45] is provided in the ESI ^† and summarised in Fig. 2a.
Furthermore, the relative amount of melphalan derivative-bound dsDNA follows the same trend as the toxicity of the compounds. […] The relative amount of these adducts decreases with the chain length, which could be a consequence of the higher hydrophobicity of the compounds and hint at a higher resistance to hydrolysis. […] No crosslinked DNA adducts, known to be relevant hallmarks in the melphalan mechanism of action, were detected, probably due to the difficulty to observe them upon ionization.[47]

[3] = system: Y79 human retinoblastoma cell line; experiment: Presto blue cell viability assay in Y79 after 24 hours; format: cell-based; settings: for IC50: Homo sapiens; for fold increase in cytotoxicity (lower IC50) compared to melphalan / cytotoxicity at the elevated temperature relative to 37 °C: Y79, 24 hours; for fold increase in cytotoxicity (lower IC50) compared to melphalan: 37 °C; for cytotoxicity at the elevated temperature relative to 37 °C: 42 °C for 1 hour vs 37 °C
Protocol: The IC50 values were determined using the presto blue cell viability assay (Table 1).
The human retina (RPE1) and retinoblastoma (Y79) cell lines were purchased from ATCC, Switzerland. RPMI 1640, DMEM high glucose Glutamax and DMEM GlutaMAX media were obtained from Life Technologies, and fetal bovine serum (FBS) was obtained from Sigma. Cell culture was performed in RPMI 1640 with 20% FBS and DMEM high glucose Glutamax with 10% FBS for Y79 and RPE1, respectively. Cell passage was performed twice per week using the appropriate medium and the resulting flaks were maintained in a bioincubator (Thermo Scientific, Switzerland) that controlled the humidity and fixed the CO2 rate to 5%. Cell viability tests were conducted in a flat bottomed 96 or 384 well plate using a compound stock solution prepared in dimethyl sulfoxide (DMSO) for all compounds except Cisplatin. The maximum concentration of DMSO in the wells was 0.1% DMSO.
2. Presto Blue cell viability assay in Y79 after 24 hours
The optimization of the starting concentration was carried out for each tested compound after 24 h of incubation. In order to conduct the tests at the mentioned time lapses, Y79’s work cell solutions were prepared at 10 6 cell/mL for the 24 h experiment. The same protocol as described below was used, however in this case, the experiment was conducted […]
3. Presto Blue cell viability assay in Y79 and RPE1 cells at 72 h […]
tests were conducted using cell work solutions at 4x10^5 and 7x10^5 cell/mL respectively and compound stock solutions were prepared at 10 µM in DMSO. The robotic System (Echo 550 […]
LIQUID HANDLER) charged the 384-cell plate with a decreasing volume of each compound’s SS in order to have a concentration gradient that covers 100 to 0.7 µM. DMSO was added to […]
added in the plate using a disperser (Thermo Scientific Multidrop Combi, Switzerland).
as §6, §7

[4] = system: healthy human retina (RPE1) immortalised cells; experiment: Presto Blue cell viability assay in RPE1 cells at 72 h; format: cell-based; settings: for cytotoxicity to healthy RPE1 cells relative to tumoral Y79 cells (selectivity): 72 hours; for IC50: Homo sapiens, RPE-1
Protocol: as §1, §2, §3, §4, §5, §6, §7

[5] = system: myeloma RPMI 8226 cell line; parameters: method as in PMID 32161295; settings: cited from earlier work
[6] = Y79, 1 hour at 42 °C followed by 71 hours at 37 °C, read-out: Y79 IC50 42 °C
[7] = Y79, 72 hours at 37 °C, read-out: Y79 IC50 37 °C
[8] = Y79, 1 hour at 42 °C followed by 23 hours at 37 °C, read-out: IC50 42 °C
[9] = Y79, 24 hours at 37 °C, 5% CO2, read-out: IC50 37 °C
[10] = RPE1, 1 hour at 42 °C followed by 71 hours at 37 °C, read-out: RPE1 IC50 42 °C
[11] = RPE1, 72 hours at 37 °C, read-out: RPE1 IC50 37 °C

## Cl.N[C@@H](Cc1ccc(N(CCCl)CCCl)cc1)C(=O)OCCC(F)(F)C(F)(F)C(F)(F)C(F)(F)C(F)(F)C(F)(F)C(F)(F)C(F)(F)F [Compound 3e]
[1]; [6]
  IC50: 4.4 ± 0.3 µM
[1]; [7]
  IC50: 4.5 ± 0.1 µM
[2]
  extent of ester cleavage in oligonucleotide adducts (ESI-MS): more significant
[3]; [8]
  IC50: 6.6 ± 0.4 µM
[3]; [9]
  IC50: 13 ± 0.4 µM
[3]
  fold increase in cytotoxicity (lower IC50) compared to melphalan: 5 to 10 fold and 5 fold
  cytotoxicity at the elevated temperature relative to 37 °C: approximately twice as cytotoxic
[4]
  cytotoxicity to healthy RPE1 cells relative to tumoral Y79 cells (selectivity): more than an order of magnitude less cytotoxic
[4]; [10]
  IC50: 42.3 ± 6 µM
[4]; [11]
  IC50: 52.8 ± 9.3 µM

## Cl.N[C@@H](Cc1ccc(N(CCCl)CCCl)cc1)C(=O)OCCC(F)(F)C(F)(F)C(F)(F)C(F)(F)C(F)(F)C(F)(F)F [Compound 3d]
[1]; [6]
  IC50: 2.1 ± 0.2 µM
[1]; [7]
  IC50: 2.3 ± 0.1 µM
[2]
  extent of ester cleavage in oligonucleotide adducts (ESI-MS): more significant
[3]; [8]
  IC50: 3.3 ± 0.2 µM
[3]; [9]
  IC50: 5.9 ± 0.3 µM
[3]
  fold increase in cytotoxicity (lower IC50) compared to melphalan: 5 to 10 fold and 10 fold
  cytotoxicity at the elevated temperature relative to 37 °C: approximately twice as cytotoxic
[4]
  cytotoxicity to healthy RPE1 cells relative to tumoral Y79 cells (selectivity): more than an order of magnitude less cytotoxic
[4]; [10]
  IC50: 31.5 ± 2.7 µM
[4]; [11]
  IC50: 39.3 ± 5 µM

## CCOC(=O)C(N)Cc1ccc(N(CCCl)CCCl)cc1 (stereo not shown) [ethyl ester derivative of melphalan]
[5]
  IC50: 1.2 ± 0.3 µM
  fold increase in cytotoxicity compared to melphalan: 8 fold

## N[C@@H](Cc1ccc(N(CCCl)CCCl)cc1)C(=O)OCCC(F)(F)C(F)(F)C(F)(F)C(F)(F)F [Compound 3c]
[3]; [8]
  IC50: 2.1 ± 0.2 µM
[3]; [9]
  IC50: 3.4 ± 0.2 µM

## N[C@@H](Cc1ccc(N(CCCl)CCCl)cc1)C(=O)OCCC(F)(F)C(F)(F)F [Compound 3b]
[3]; [8]
  IC50: 1.8 ± 0.1 µM
[3]; [9]
  IC50: 2.2 ± 0.1 µM

## Cl.N[C@@H](Cc1ccc(N(CCCl)CCCl)cc1)C(=O)OCCC(F)(F)C(F)(F)C(F)(F)C(F)(F)C(F)(F)C(F)(F)C(F)(F)C(F)(F)C(F)(F)C(F)(F)F [Compound 3f]
[2]
  adduct formation with the dsDNA oligonucleotide (ESI-MS): no adducts were observed
[3]; [8]
  IC50: 183 ± 20 µM
[3]; [9]
  IC50: > 200 µM

## N[C@@H](Cc1ccc(N(CCCl)CCCl)cc1)C(=O)O [Melphalan]
[2]
  adduct formation with the dsDNA oligonucleotide (ESI-MS): formed adducts with both strands of the oligonucleotides
[3]; [8]
  IC50: 26 ± 2 µM
[3]; [9]
  IC50: 59 ± 5 µM

## N[C@@H](Cc1ccc(N(CCCl)CCCl)cc1)C(=O)OCCC(F)(F)F [Compound 3a]
[3]; [8]
  IC50: 1.1 ± 0.1 µM
[3]; [9]
  IC50: 1.2 ± 0.1 µM
